Reference: US8858934B2, “Method for producing cells having characteristics of hepatocytes” (priority 2010, dated 2014)

Tested on: cells of the present invention (Metaheps)
Test: Long-term toxicity in the cells of the present invention (LDH release over 15 days)
Format: cell-based, human
Details: Metaheps incubated 15 days with low concentrations (diclofenac 50 μM, acetaminophen 500 μM)
Procedure: On incubation days 1, 3, 6, 8, 10, 13 and 15 medium samples were drawn and LDH activity in media was determined using the Cytotoxicity Kit from Promega. LDH release was calculated in % as 100×(LDH in media/LDH media+LDH lysate).

SMILES	toxicity in Metaheps as measured by LDH release
O=C(O)Cc1ccccc1Nc1c(Cl)cccc1Cl [diclofenac]	long-term toxicity
CC(=O)Nc1ccc(O)cc1 [acetaminophen]	acute toxicity
